“And” between values parts separate entries of the source, which are not always exact repeats. Equal values may be shown once. “Also recorded” adds a separate entry of the source.
How the values were obtained:
[1] = biological target: UPR element (UPRE); experiment: EMSA, direct binding to UPRE DNA probe; conditions: labeled UPRE DNA probe
Protocol: The DNA binding dimer STR22 (shown in FIG. 21 and FIG. 27) was synthesized. STR22 was subjected to EMSA to measure binding to either the UPR element (UPRE) or AP-1 binding site (AP-1).
Electrophoretic Mobility Shift Assays (EMSAs): For direct DNA binding experiments, STRs were serially diluted at 10× concentration in water and then 1 μL of STR solution was added to 9 μL of 5 nM IRD700-labeled DNA probe bearing either a UPRE or AP-1 motif in a final 1×binding buffer (20 mM HEPES pH 8.0, 150 mM NaCl, 5% glycerol, 1 mM EDTA, 2 mM MgCl2, 0.5 mg/mL BSA, 1 mM DTT, 0.05% NP-40). Samples were incubated for 1 hr at RT. 5 μL of each reaction was loaded on an 8% acrylamide, 0.5×TBE gel equilibrated to 4° C. Samples were resolved for 60 min at 110 V and 4° C. with 0.5×TBE+1 mM MgCl2 running buffer. Gels were pre-run at 110 V for 15 min prior to sample loading. For competition experiments, 30 or 60 nM STRs and 5 nM labeled UPRE probe were incubated with 0, 7.8, 13, 21.6, 36, 60 or 100 nM unlabeled competitor oligo for 1 hr at RT. Gels were imaged using a Li—COR Odyssey. ImageJ was used to quantify band intensity and the fraction of bound DNA was calculated by dividing the band intensity of bound DNA by the band intensity of free DNA from the vehicle treated lane. A four-parameter dose-response curve fit to a plot of normalized fraction bound DNA vs. log STR concentration yielded an the apparent KD. […]

[2] = system: FLAG-XBP1s; experiment: Western blot of FLAG-XBP1s; type: cell-based, human; conditions: HeLa, 20 μM
Protocol: Immunoblotting. Following indicated treatments, cells were first washed with ice-cold PBS. Whole-cell extracts were prepared by directly lysing cells with Laemmli sample buffer (Bio-rad, 1610747) supplemented with 2-Mercaptoethanol (Gibco, 21985023), protease inhibitor (Roche, 4693159001), PMSF (Roche, 10837091001) and phosphatase inhibitor (GB-450) at 4° C. Finally, protein samples were boiled at 95° C. for 5 mins. Western blotting was performed using antibodies for XBP1 (Biolegend, 9D11A43), HIF1α (Novus Biologicals, NB100-479), GAPDH (Santa Cruz Biotech, sc-32233) and α-tubulin (Invitrogen, MA1-19401) were used. Blots were imaged using Li—COR Odyssey Fc.

[3] = system: HIF1α; experiment: ChIP-qPCR of HIF1α binding to HRE-containing genes; type: cell-based, human; conditions: hypoxia 1% O2 6 hours, 20 μM 24 hours
Protocol: Chromatin Immunoprecipitation (ChIP): For XBP1s-ChIP experiments, 3×10^6 HeLa cells were transfected with 1 μg of either the control or Flag-XBP1s vector for 4 hrs and then followed by 20 μM STR22. For hypoxia response experiments, 10×10^6 HeLa cells were treated with 20 μM STR22 for 24 hrs, followed by an additional 6 hrs under 1% 02. At the end of all treatments, cells were crosslinked with 1% formaldehyde for 10 min at 37° C. and then quenched with 125 mM glycine for 1 min. Cells were sheared in buffer containing: 0.1% SDS, 50 mM Tris-HCl (pH 7.6), 1 mM EDTA (pH8.0), 0.002% Triton X-100, supplemented with PMSF (Roche, 10837091001) and protease inhibitor (Roche, 11836170001). Lysates were sonicated with a Bioruptor for a total of 4 cycles for ChIP-qPCR, or 40 cycles for ChIP-sequencing (30 sec on/30 sec off each cycle). Sonicated chromatin was incubated with antibodies overnight at 4° C. Antibodies used: HIF1α (Novis Biologicals, NB100-479), normal rabbit serum (Jackson Immunoresearch, 011-000-001), Flag (Sigma, F1804-200UG), mouse IgG conjugated with Dynabeads Protein A (Life Technologies, 10001D)+G (Invitrogen, 10003D). […]

[4] = system: MDA-MB-231 cells; experiment: Boyden chamber invasion, MDA-MB-231; type: cell-based, human; conditions: MDA-MB-231, 20 μM, 24 hours, hypoxia
Protocol: Boyden Chamber Invasion Assay. Each Boyden chamber membrane (Fisher Scientific, 353097) was coated with a thin layer of Basement Membrane Extract (BME, 200 μl of 0.25 mg/ml stock; 50 μg total BME per membrane) and incubated at 37° C. for 1 hr. Cells were trypsinized, neutralized in 10% FBS DMEM media, and centrifuged at 500×g for 5 min followed by two rounds of PBS washes to remove remaining serum-containing media. Cells were then resuspended in serum-free media and diluted to the desired concentration for plating onto the Boyden chamber. 1×10^6 MDA-MB-231 cells in 300 μL serum-free media were plated on each Boyden chamber. 500 μL of 10% FBS DMEM media was placed in the lower well, acting as the chemoattractant. Serum-free media placed in the lower wells served as negative controls. Treated cells were plated in 20 μM of STR22. After a 24 hr incubation, the membranes were stained with Calcein AM (Fisher Scientific, 354217) for 1 hr at 37° C. to stain for live cells. The tops of the chambers were swabbed to remove remaining cells, and cells on the bottom of the chamber were dissociated from the membrane by incubating in cell dissociated buffer (R&D Systems, 3455-05-03) in a shaker at 37° C. for 1 hr. Calcein AM signal was measured in Perkin Elmer Victor X3 plate reader as a read-out of invaded cells.

“XBP1-derived stapled dimer: RRK^KNR^AAQTARDRKKA#LSELEQQVVDLE linked to RRK^KNR^AAQTARDRKKARLSEL#QQVVDLE; FIG. 27 [STR22]” was tested, and the Kd [1] was 0.0142 µM and 0.011 µM, the FLAG-XBP1s protein levels [2] was “did not affect FLAG-XBP1s protein levels” and the “HIF1α binding at HRE target genes (ChIP-qPCR)” value [3] was “almost completely blocked HIF1α binding; also recorded: abrogated HIF1α binding”. The cell invasion [4] was “significantly inhibited cell invasion”.

Reference: patent US20250136650A1, “COMPOSITIONS AND METHODS FOR DNA BINDING AND TRANSCRIPTIONAL REGULATION” (THE UNIVERSITY OF CHICAGO, priority 2021, published 2025)
